Test results reported in patent US10870858B2 (priority 2014, dated 2020).

Tested on: stably-integrated TK strains
Test: FUdR counterselection of TK versus tk cells on SC media
Type: cell-based, Saccharomyces
Settings: 50 μg/mL FUdR in synthetic complete (SC) media
Description: With a stably integrated copy of HSV-TK in each of several genomes, we were able to evaluate counterselection media conditions. […] As an initial test of our ability to recover newly generated tk wild-type cells, we transformed a strain of S. kudriavzevii that had regions of identical sequence on either side of its hoΔ::NatMX locus with TkMX PCR product and selected for cells resistant to the antifolate drugs (FIG. 4A). When counterselection with SC+FUdR media was conducted, only cells that had deleted the TkMX marker by homologous recombination survived and yielded colonies resistant to FUdR (FIG. 4B).

O=c1[nH]c(=O)n([C@H]2C[C@H](O)[C@@H](CO)O2)cc1F [FUdR, 5-fluorodeoxyuridine]
growth of stably-integrated TK strains: sufficient to inhibit growth | growth of tk wild-type cells: allow growth
